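96-well plates; 48 h exposure; 5 concentrations. Endpoints by linear interpolation between flanking doses. Not reached: highest tested concentration assigned. Abbreviation: GI50, concentration required for 50% inhibition of growth. TGI marks complete inhibition of growth.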
Tests used:
Experiment in all cases: NCI tumour cell line growth inhibition, 48 h
UO-31 renal = tested on: UO-31 renal
SF-539 CNS = tested on: SF-539 CNS
OVCAR-3 ovarian = tested on: OVCAR-3 ovarian
MCF7 breast = tested on: MCF7 breast
OVCAR-8 ovarian = tested on: OVCAR-8 ovarian
NCI-H23 lung = tested on: NCI-H23 lung
NCI-H460 lung = tested on: NCI-H460 lung
MALME-3M melanoma = tested on: MALME-3M melanoma
HOP-92 NSCLC = tested on: HOP-92 NSCLC
HS 578T breast = tested on: HS 578T breast
SF-295 CNS = tested on: SF-295 CNS
COLO 205 colon = tested on: COLO 205 colon
HOP-62 NSCLC = tested on: HOP-62 NSCLC
K-562 leukemia = tested on: K-562 leukemia
MDA-MB-231 breast = tested on: MDA-MB-231 breast
HCC-2998 colon = tested on: HCC-2998 colon
NCI-H522 lung = tested on: NCI-H522 lung
SN12C renal = tested on: SN12C renal
U251 CNS = tested on: U251 CNS
HT29 colon = tested on: HT29 colon
ACHN renal = tested on: ACHN renal
SF-268 CNS = tested on: SF-268 CNS
SNB-19 CNS = tested on: SNB-19 CNS
A549 NSCLC = tested on: A549 NSCLC
NCI-H226 lung = tested on: NCI-H226 lung
HCT-15 colon = tested on: HCT-15 colon
NCI/ADR-RES ovarian = tested on: NCI/ADR-RES ovarian
EKVX NSCLC = tested on: EKVX NSCLC
UACC-257 melanoma = tested on: UACC-257 melanoma
SW-620 colon = tested on: SW-620 colon
MDA-MB-435 = tested on: MDA-MB-435
SK-MEL-2 melanoma = tested on: SK-MEL-2 melanoma
KM12 colon = tested on: KM12 colon
SK-MEL-28 melanoma = tested on: SK-MEL-28 melanoma
HL-60(TB) leukemia = tested on: HL-60(TB) leukemia
TK-10 renal = tested on: TK-10 renal
HCT-116 colon = tested on: HCT-116 colon
CAKI-1 renal = tested on: CAKI-1 renal
OVCAR-5 ovarian = tested on: OVCAR-5 ovarian
A498 renal = tested on: A498 renal
UACC-62 melanoma = tested on: UACC-62 melanoma
PC-3 prostate = tested on: PC-3 prostate
RPMI-8226 leukemia = tested on: RPMI-8226 leukemia
M14 melanoma = tested on: M14 melanoma
T-47D breast = tested on: T-47D breast
MOLT-4 leukemia = tested on: MOLT-4 leukemia
IGROV1 ovarian = tested on: IGROV1 ovarian
CCRF-CEM leukemia = tested on: CCRF-CEM leukemia
BT-549 breast = tested on: BT-549 breast
RXF 393 renal = tested on: RXF 393 renal
LOX IMVI melanoma = tested on: LOX IMVI melanoma
DU-145 prostate = tested on: DU-145 prostate
SNB-75 CNS = tested on: SNB-75 CNS
SK-MEL-5 melanoma = tested on: SK-MEL-5 melanoma
SR leukemia = tested on: SR leukemia

SMILES: Cc1cc(N(CCCl)CCCl)ccc1/C=N\NC(=O)c1cccnc1
- GI50 (UO-31 renal): 21.6 µM
- TGI (UO-31 renal): 82.7 µM
- GI50 (SF-539 CNS): 13.9 µM
- TGI (SF-539 CNS): > 100 µM
- GI50 (OVCAR-3 ovarian): 23.1 µM
- TGI (OVCAR-3 ovarian): 79.3 µM
- GI50 (MCF7 breast): 16.8 µM
- TGI (MCF7 breast): > 100 µM
- GI50 (OVCAR-8 ovarian): 25.9 µM
- TGI (OVCAR-8 ovarian): > 100 µM
- GI50 (NCI-H23 lung): 18.4 µM
- TGI (NCI-H23 lung): > 100 µM
- GI50 (NCI-H460 lung): 0.685 µM
- TGI (NCI-H460 lung): 23.3 µM
- GI50 (MALME-3M melanoma): 26.2 µM
- TGI (MALME-3M melanoma): 83.7 µM
- GI50 (HOP-92 NSCLC): 17.3 µM
- TGI (HOP-92 NSCLC): 59.3 µM
- GI50 (HS 578T breast): 48.6 µM
- TGI (HS 578T breast): > 100 µM
- GI50 (SF-295 CNS): 4.17 µM
- TGI (SF-295 CNS): 28.3 µM
- GI50 (COLO 205 colon): 19.1 µM
- TGI (COLO 205 colon): 85.3 µM
- GI50 (HOP-62 NSCLC): 19.5 µM
- TGI (HOP-62 NSCLC): > 100 µM
- GI50 (K-562 leukemia): 20.1 µM
- TGI (K-562 leukemia): > 100 µM
- GI50 (MDA-MB-231 breast): 29.3 µM
- TGI (MDA-MB-231 breast): > 100 µM
- GI50 (HCC-2998 colon): 25 µM
- TGI (HCC-2998 colon): 97.6 µM
- GI50 (NCI-H522 lung): 15.2 µM
- TGI (NCI-H522 lung): 32.3 µM
- GI50 (SN12C renal): 22.4 µM
- TGI (SN12C renal): > 100 µM
- GI50 (U251 CNS): 21.6 µM
- TGI (U251 CNS): > 100 µM
- GI50 (HT29 colon): 30.3 µM
- TGI (HT29 colon): > 100 µM
- GI50 (ACHN renal): 10.7 µM
- TGI (ACHN renal): > 100 µM
- GI50 (SF-268 CNS): 25.1 µM
- TGI (SF-268 CNS): > 100 µM
- GI50 (SNB-19 CNS): > 100 µM
- TGI (SNB-19 CNS): > 100 µM
- GI50 (A549 NSCLC): 21 µM
- TGI (A549 NSCLC): > 100 µM
- GI50 (NCI-H226 lung): 1.11 µM
- TGI (NCI-H226 lung): 2.8 µM
- GI50 (HCT-15 colon): 21.9 µM
- TGI (HCT-15 colon): > 100 µM
- GI50 (NCI/ADR-RES ovarian): 13.7 µM
- TGI (NCI/ADR-RES ovarian): 48.7 µM
- GI50 (EKVX NSCLC): 48.8 µM
- TGI (EKVX NSCLC): > 100 µM
- GI50 (UACC-257 melanoma): 6.96 µM
- TGI (UACC-257 melanoma): 34.9 µM
- GI50 (SW-620 colon): 30.3 µM
- TGI (SW-620 colon): > 100 µM
- GI50 (MDA-MB-435): 24.6 µM
- TGI (MDA-MB-435): > 100 µM
- GI50 (SK-MEL-2 melanoma): 27.3 µM
- TGI (SK-MEL-2 melanoma): 59 µM
- GI50 (KM12 colon): 34.4 µM
- TGI (KM12 colon): > 100 µM
- GI50 (SK-MEL-28 melanoma): 43.4 µM
- TGI (SK-MEL-28 melanoma): > 100 µM
- GI50 (HL-60(TB) leukemia): 4.3 µM
- TGI (HL-60(TB) leukemia): 26.4 µM
- GI50 (TK-10 renal): 11.2 µM
- TGI (TK-10 renal): 36.2 µM
- GI50 (HCT-116 colon): 26.9 µM
- TGI (HCT-116 colon): > 100 µM
- GI50 (CAKI-1 renal): 5.46 µM
- TGI (CAKI-1 renal): 45 µM
- GI50 (OVCAR-5 ovarian): 12 µM
- TGI (OVCAR-5 ovarian): 60 µM
- GI50 (A498 renal): 1.42 µM
- TGI (A498 renal): 2.92 µM
- GI50 (UACC-62 melanoma): 4.51 µM
- TGI (UACC-62 melanoma): 25.2 µM
- GI50 (PC-3 prostate): 22.7 µM
- TGI (PC-3 prostate): > 100 µM
- GI50 (RPMI-8226 leukemia): 20.1 µM
- TGI (RPMI-8226 leukemia): 59 µM
- GI50 (M14 melanoma): 34.4 µM
- TGI (M14 melanoma): > 100 µM
- GI50 (T-47D breast): 6.41 µM
- TGI (T-47D breast): 50.2 µM
- GI50 (MOLT-4 leukemia): 8.19 µM
- TGI (MOLT-4 leukemia): 39.2 µM
- GI50 (IGROV1 ovarian): 35.9 µM
- TGI (IGROV1 ovarian): > 100 µM
- GI50 (CCRF-CEM leukemia): 9.23 µM
- TGI (CCRF-CEM leukemia): > 100 µM
- GI50 (BT-549 breast): 19.4 µM
- TGI (BT-549 breast): 61.6 µM
- GI50 (RXF 393 renal): 19.2 µM
- TGI (RXF 393 renal): 48.6 µM
- GI50 (LOX IMVI melanoma): 15.6 µM
- TGI (LOX IMVI melanoma): 99.4 µM
- GI50 (DU-145 prostate): 15.1 µM
- TGI (DU-145 prostate): 99 µM
- GI50 (SNB-75 CNS): 25.5 µM
- TGI (SNB-75 CNS): > 100 µM
- GI50 (SK-MEL-5 melanoma): 15.7 µM
- TGI (SK-MEL-5 melanoma): 39.1 µM
- GI50 (SR leukemia): 4.81 µM
- TGI (SR leukemia): > 100 µM

Source: PubChem BioAssay (NCI)
